Patent US10300064B2, “Organic compounds” (INTRA-CELLULAR THERAPIES, INC., priority 2014, dated 2019)
Each block holds one compound with its values, some of them ahead of it.

Experiments:
r-hPDE2A = biological target: T1, r-hPDE2A (Homo sapiens, UniProt O00408); assay: Measurement of PDE2 inhibition in vitro (IMAP fluorescence polarization, FL-cAMP substrate); type: biochemical; details: 1 μM cGMP
T1 construct: host or cells: HEK293 cells, transient transfection; soluble cytosolic fraction used
Method: Measurement of PDE2 Inhibition In Vitro
r-hPDE2A (Accession No. NM_002599, Homo sapiens phosphodiesterase 2A, cGMP-stimulated, transcript variant 1) A mammalian expression cloning vector with recombinant cDNA copy of the gene is purchased from Origene. Protein is expressed via transient transfection of HEK293 cells. The cells are harvested at 48 hours after transfection, washed once with TBS buffer (50 mM Tris-HCl, pH 7.5, 150 mM NaCl), then lysed by sonication in cold homogenization buffer (50 mM Tris-HCl, pH 7.5, 5 mM MgCl2, lx protease inhibitor cocktail). The homogenate is centrifuged for […] at 15,000 g at 4° C. to obtain the soluble cytosolic fraction. The protein concentration of the cytosol is determined using BCA Protein Assay Kit (Pierce) with bovine serum albumin as a standard.
PDE2A is assayed with FL-cAMP as substrate. An enzyme titration is first performed to determine the working concentration of PDE. The concentration of the enzyme giving activity of 100 ΔmP in the absence of inhibitor is deemed an appropriate working concentration for PDE.
PDE enzyme is diluted in a standard reaction buffer (10 mM Tris-HCl pH 7.2, 10 mM MgCl2, 0.1% BSA, 0.05% NaN3) according to the titration curve. For PDE2 assay the reaction buffer is supplemented with 1 μM cGMP to fully activate the enzyme. 99 μl of diluted enzyme solution is added into each well in a flat bottom 96-well polystyrene plate and then 1 μl of test compound dissolved in 100% DMSO is added. The compounds are mixed and pre-incubated with the enzyme for 10 min at room temperature.
The FL-cNMP conversion reaction is initiated by addition of substrate (45 nM final). Enzyme and inhibitor mix (16 μl) and substrate solution (4 μl of 0.225 μM) are combined in a 384-well microtiter plate. The reaction is incubated in the dark at room temperature for 15 min. The reaction is halted by addition of 60 μl of binding reagent (1:400 dilution of IMAP beads in binding buffer supplemented with 1:1800 dilution of antifoam) to each well of the 384-well plate. The plate is incubated at room temperature for 1 hour to allow IMAP binding to proceed to completion, and then placed in an Envision multimode microplate reader (PerkinElmer, Shelton, Conn.) to measure the fluorescence polarization (Δmp).
A decrease in cAMP concentration, measured as decreased Amp, is indicative of inhibition of PDE activity. […] IC50 values are estimated using nonlinear regression software, fitting a four-parameter one-site dose-response model (XLFit; IDBS, Cambridge, Mass.). […]
The total fluorescence intensity of each sample well is measured to calculate the average and standard deviation. If the total fluorescence intensity of any sample well is not within the range of Average±3SD, the mp value of that particular well is discarded. […]

[1] = Pharmacokinetic study in mice (plasma and brain availability); type: in vivo; details: single oral dose 10 mg/kg PO, 0.25-4h, FIG. 1
Method: FIG. 1 illustrats the plasma and brain levels in mice dosed with 10 mg/kg P.O. of the compound of Example 1 over time.
Mice are given a single oral dose of the compound to be tested (10 mg/kg, PO) and plasma and brain availability are measured (0.25-4h) using HPLC and LC-MS using methods analogous to those described in Zhao et al., J. Chromatogr. B. Analyt. Technol. Biomed. Life Sci. (2005) 819(1):73-80 and Appels, N. M., et al., Rapid Commun. Mass Spec. 2005. 19(15): p. 2187-92.

Wistar rats = assay: Object recognition task, memory performance of Wistar rats; type: in vivo, rat; details: male Wistar rats, oral, 2 h before learning
Method: The Effects of Treatment with PDE2 Inhibitors on Memory Performance of Wistar Rats in the Object Recognition Task
The memory-enhancing effects of the compound of Example 1 are tested in an animal model of cognition, the object recognition task. See, Ennaceur, A., Delacour, J., 1988. A new one-trial test for neurobiological studies of memory in rats. 1: Behavioral data. Behav. Brain Res. 31, 47-59. Rats remember which object they have explored in a previous trial when they are tested one hour later. However, when a 24 h inter-trial interval is used, they are not able to remember which object was presented to them in the first trial. It is tested whether the compound of Example 1 would attenuate this time-induced object memory deficit, when given 2 h before the first trial. The compounds are given to 2-3-months-old male Wistar rats.
The compound of Example 1 is injected orally (2 ml/kg) 2 h before learning, at doses of 0, 0.3, 1, 3 and 10 mg/kg.

PDE1 = assay: Selectivity for PDE2 over PDE1; type: biochemical
Method: (§1) Using the IMAP procedure described or similarly described above, we screened a proprietary PDE-focused compound library to identify novel compounds with nanomolar PDE2 inhibitory activities. […] The compounds are moreover selective for PDE2; the compound of Example 4 is tested and shown to be selective for PDE2 over PDE1, PDE3, PDE4D, PDE5, PDE6, PDE7B, PDE8A, PDE9A, PDE10A and PDE11A by greater than 20-fold.

PDE3 = assay: Selectivity for PDE2 over PDE3; type: biochemical
Method: as §1

PDE4D = PDE4D (Homo sapiens, UniProt Q08499); assay: Selectivity for PDE2 over PDE4D; type: biochemical
Method: as §1

PDE5 = PDE5 (Homo sapiens, UniProt O76074); assay: Selectivity for PDE2 over PDE5; type: biochemical
Method: as §1

PDE6 = assay: Selectivity for PDE2 over PDE6; type: biochemical
Method: as §1

PDE7B = PDE7B (Homo sapiens, UniProt Q9NP56); assay: Selectivity for PDE2 over PDE7B; type: biochemical
Method: as §1

PDE8A = PDE8A (Homo sapiens, UniProt O60658); assay: Selectivity for PDE2 over PDE8A; type: biochemical
Method: as §1

PDE9A = PDE9A (Homo sapiens, UniProt O76083); assay: Selectivity for PDE2 over PDE9A; type: biochemical
Method: as §1

PDE10A = PDE10A (Homo sapiens, UniProt Q9Y233); assay: Selectivity for PDE2 over PDE10A; type: biochemical
Method: as §1

PDE11A = PDE11A (Homo sapiens, UniProt Q9HCR9); assay: Selectivity for PDE2 over PDE11A; type: biochemical
Method: as §1

T1 sequence (O00408 whole entry): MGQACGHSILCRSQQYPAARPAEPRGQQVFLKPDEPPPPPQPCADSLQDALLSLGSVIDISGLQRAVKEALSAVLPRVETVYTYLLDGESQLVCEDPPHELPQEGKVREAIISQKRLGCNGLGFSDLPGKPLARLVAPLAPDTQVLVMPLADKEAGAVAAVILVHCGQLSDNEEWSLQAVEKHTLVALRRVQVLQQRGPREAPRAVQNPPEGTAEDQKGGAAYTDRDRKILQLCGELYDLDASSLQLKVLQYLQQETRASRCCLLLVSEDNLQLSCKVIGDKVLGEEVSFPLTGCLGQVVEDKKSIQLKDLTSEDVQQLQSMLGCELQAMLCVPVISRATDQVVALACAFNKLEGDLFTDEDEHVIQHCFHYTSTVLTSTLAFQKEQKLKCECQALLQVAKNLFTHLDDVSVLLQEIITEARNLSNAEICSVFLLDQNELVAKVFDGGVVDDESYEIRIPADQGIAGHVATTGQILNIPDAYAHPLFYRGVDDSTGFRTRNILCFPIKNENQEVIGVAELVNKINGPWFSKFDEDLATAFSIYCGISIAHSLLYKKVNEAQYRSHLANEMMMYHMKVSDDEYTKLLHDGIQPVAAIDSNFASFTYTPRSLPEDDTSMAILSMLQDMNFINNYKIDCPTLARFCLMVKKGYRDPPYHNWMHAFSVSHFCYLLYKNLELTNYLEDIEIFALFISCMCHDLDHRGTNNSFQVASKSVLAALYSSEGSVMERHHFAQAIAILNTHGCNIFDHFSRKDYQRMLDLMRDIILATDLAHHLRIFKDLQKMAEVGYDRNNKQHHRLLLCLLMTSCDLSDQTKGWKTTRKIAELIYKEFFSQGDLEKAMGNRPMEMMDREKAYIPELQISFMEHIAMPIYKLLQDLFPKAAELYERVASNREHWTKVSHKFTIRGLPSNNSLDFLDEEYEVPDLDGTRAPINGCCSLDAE
PDE8A, sequence (O60658 whole entry, species assumed): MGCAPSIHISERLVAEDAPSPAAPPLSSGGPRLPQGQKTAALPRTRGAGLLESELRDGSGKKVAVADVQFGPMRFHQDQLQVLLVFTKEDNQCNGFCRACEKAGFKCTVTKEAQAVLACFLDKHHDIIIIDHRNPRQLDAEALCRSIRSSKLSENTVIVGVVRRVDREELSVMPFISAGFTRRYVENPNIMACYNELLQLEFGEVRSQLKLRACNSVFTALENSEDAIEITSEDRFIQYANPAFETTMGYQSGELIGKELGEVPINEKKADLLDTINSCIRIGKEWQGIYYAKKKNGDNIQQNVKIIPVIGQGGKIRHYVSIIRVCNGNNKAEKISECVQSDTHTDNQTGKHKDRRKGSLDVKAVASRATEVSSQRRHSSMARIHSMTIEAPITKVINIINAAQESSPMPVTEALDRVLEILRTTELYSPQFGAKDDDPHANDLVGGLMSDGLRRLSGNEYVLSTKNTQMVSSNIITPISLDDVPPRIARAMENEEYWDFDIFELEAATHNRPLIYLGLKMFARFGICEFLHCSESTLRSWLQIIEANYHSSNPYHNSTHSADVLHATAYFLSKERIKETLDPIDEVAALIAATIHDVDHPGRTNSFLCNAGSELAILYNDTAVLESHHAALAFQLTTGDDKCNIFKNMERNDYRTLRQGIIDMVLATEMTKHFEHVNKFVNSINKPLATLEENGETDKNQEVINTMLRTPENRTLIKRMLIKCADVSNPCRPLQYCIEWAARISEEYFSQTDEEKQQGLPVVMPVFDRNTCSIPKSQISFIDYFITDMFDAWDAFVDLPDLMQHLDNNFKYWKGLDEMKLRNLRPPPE
PDE11A, sequence (Q9HCR9 whole entry, species assumed): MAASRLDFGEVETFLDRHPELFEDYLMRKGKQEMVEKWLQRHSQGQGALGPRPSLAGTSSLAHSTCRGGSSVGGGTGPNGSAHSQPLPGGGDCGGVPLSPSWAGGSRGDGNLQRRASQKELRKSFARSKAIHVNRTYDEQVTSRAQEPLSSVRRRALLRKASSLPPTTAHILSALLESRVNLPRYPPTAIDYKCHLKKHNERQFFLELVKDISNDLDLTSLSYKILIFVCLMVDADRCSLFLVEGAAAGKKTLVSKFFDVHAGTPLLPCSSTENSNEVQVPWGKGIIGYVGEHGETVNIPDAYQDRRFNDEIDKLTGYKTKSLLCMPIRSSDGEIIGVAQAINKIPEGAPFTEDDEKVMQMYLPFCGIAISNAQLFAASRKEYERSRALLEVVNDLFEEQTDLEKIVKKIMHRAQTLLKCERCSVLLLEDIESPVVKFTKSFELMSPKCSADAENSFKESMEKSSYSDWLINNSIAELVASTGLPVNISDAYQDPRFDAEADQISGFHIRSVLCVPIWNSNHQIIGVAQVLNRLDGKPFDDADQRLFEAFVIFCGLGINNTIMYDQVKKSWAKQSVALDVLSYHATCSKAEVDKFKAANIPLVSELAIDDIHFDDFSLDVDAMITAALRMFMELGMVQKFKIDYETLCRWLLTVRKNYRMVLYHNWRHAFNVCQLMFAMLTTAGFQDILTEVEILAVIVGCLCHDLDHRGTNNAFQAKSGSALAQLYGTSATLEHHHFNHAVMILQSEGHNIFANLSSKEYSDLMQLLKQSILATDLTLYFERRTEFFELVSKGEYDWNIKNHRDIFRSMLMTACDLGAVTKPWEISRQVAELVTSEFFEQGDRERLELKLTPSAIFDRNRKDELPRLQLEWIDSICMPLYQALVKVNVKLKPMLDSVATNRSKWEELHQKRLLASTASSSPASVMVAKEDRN
PDE10A, sequence (Q9Y233 whole entry, species assumed): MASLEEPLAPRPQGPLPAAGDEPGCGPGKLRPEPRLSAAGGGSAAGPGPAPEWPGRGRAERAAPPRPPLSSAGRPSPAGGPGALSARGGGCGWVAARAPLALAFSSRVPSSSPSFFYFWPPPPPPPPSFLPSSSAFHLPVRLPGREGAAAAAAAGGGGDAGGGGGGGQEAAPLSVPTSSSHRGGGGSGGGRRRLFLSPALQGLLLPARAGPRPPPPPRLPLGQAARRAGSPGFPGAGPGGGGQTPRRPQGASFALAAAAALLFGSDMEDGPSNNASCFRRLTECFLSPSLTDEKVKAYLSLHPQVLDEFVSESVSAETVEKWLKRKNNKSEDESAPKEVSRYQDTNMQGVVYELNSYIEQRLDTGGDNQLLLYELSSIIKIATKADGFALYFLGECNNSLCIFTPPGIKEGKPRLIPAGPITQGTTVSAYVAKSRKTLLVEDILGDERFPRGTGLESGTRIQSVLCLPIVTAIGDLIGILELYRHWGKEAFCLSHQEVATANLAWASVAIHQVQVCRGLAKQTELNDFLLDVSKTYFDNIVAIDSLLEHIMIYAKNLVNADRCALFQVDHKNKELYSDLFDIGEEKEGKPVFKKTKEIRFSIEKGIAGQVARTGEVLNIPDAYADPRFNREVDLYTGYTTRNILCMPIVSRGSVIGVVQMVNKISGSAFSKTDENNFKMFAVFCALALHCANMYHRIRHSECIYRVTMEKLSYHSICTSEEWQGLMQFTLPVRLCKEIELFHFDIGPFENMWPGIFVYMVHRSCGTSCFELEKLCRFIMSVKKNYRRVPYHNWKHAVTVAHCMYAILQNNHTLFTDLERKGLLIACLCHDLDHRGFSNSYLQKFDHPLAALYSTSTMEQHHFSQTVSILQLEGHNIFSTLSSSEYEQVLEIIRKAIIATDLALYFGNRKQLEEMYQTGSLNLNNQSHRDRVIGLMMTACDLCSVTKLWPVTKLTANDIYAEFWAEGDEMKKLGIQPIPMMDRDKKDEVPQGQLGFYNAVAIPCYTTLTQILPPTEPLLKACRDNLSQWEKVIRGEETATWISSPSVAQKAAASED
PDE7B, sequence (Q9NP56 whole entry, species assumed): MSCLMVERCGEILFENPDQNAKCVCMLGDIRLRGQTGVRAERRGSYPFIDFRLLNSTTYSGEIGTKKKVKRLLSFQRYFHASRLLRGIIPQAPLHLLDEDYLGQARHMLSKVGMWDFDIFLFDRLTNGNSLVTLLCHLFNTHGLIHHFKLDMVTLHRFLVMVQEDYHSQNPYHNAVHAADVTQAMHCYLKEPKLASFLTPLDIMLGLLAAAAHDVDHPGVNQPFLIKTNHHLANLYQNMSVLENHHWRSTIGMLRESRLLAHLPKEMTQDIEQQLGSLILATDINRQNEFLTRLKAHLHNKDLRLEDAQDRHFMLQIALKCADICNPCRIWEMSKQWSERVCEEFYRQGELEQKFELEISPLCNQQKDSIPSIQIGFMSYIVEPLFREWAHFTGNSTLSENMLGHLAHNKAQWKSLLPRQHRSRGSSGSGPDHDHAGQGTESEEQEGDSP
PDE9A, sequence (O76083 whole entry, species assumed): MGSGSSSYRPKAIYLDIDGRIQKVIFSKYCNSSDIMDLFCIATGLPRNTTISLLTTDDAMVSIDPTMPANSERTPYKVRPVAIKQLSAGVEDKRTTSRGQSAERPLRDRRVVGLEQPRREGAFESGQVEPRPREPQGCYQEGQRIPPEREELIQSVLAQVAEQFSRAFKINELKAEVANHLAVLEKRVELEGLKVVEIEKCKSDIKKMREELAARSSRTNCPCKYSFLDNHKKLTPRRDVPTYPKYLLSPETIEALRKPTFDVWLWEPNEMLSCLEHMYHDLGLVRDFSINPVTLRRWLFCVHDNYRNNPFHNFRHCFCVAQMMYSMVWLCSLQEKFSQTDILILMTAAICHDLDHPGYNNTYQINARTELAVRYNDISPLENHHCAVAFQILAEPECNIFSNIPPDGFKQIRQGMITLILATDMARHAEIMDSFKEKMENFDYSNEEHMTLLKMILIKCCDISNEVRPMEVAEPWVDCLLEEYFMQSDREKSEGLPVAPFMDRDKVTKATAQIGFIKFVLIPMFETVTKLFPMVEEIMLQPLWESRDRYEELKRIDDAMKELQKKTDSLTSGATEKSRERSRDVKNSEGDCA

IC50 (r-hPDE2A): 23.1 nM
brain access (plasma and brain availability) [1]: good brain access
SMILES: Cc1nn(-c2cnn(C)c2-c2ccc(C(F)(F)F)cc2)c2c(N3CCC3)ncnc12 [Example 1, 7-(Azetidin-1-yl)-3-methyl-1-(1-methyl-5-(4-(trifluoromethyl)phenyl)-1H-pyrazol-4-yl)-1H-pyrazolo[4,3-d]pyrimidine]
memory improvement (object memory, 24 h inter-trial interval) (Wistar rats; 0.3 mg/kg): intermediate memory improvement
time-dependent forgetting (object memory, 24 h inter-trial interval) (Wistar rats; 1.0 mg/kg): completely prevent the time-dependent forgetting
memory improvement (object memory, 24 h inter-trial interval) (Wistar rats; 3.0 mg/kg): intermediate memory improvement

IC50 (r-hPDE2A): 92 nM
SMILES: COc1ccc(-c2c(-n3nc(C)c4ncnc(N5CCC5)c43)cnn2C)c(C)c1 [Example 2, 7-(Azetidin-1-yl)-1-(5-(4-methoxy-2-methylphenyl)-1-methyl-1H-pyrazol-4-yl)-3-methyl-1H-pyrazolo[4,3-d]pyrimidine]

IC50 (r-hPDE2A): 9.5 nM
SMILES: Cc1nn(-c2cnn(C)c2-c2ccc(C3CC3)cc2)c2c(N3CCC3)ncnc12 [Example 3, 7-(Azetidin-1-yl)-1-(5-(4-cyclopropylphenyl)-1-methyl-1H-pyrazol-4-yl)-3-methyl-1H-pyrazolo[4,3-d]pyrimidine]

IC50 (r-hPDE2A): 18.5 nM
selectivity for PDE2 over PDE4D (PDE4D): greater than 20 fold
selectivity for PDE2 over PDE5 (PDE5): greater than 20 fold
selectivity for PDE2 over PDE7B (PDE7B): greater than 20 fold
selectivity for PDE2 over PDE8A (PDE8A): greater than 20 fold
selectivity for PDE2 over PDE9A (PDE9A): greater than 20 fold
selectivity for PDE2 over PDE10A (PDE10A): greater than 20 fold
selectivity for PDE2 over PDE11A (PDE11A): greater than 20 fold
SMILES: CCc1ccc(-c2c(-n3nc(C)c4ncnc(N5CCC5)c43)cnn2C)cc1 [Example 4, 7-(Azetidin-1-yl)-1-(5-(4-ethylphenyl)-1-methyl-1H-pyrazol-4-yl)-3-methyl-1H-pyrazolo[4,3-d]pyrimidine]
selectivity for PDE2 over PDE1 (PDE1): greater than 20 fold
selectivity for PDE2 over PDE3 (PDE3): greater than 20 fold
selectivity for PDE2 over PDE6 (PDE6): greater than 20 fold
